# According to patent publication US20210059977A1, “COMBINATION THERAPIES FOR THE TREATMENT OF AMYOTROPHIC LATERAL SCLEROSIS AND RELATED DISORDERS” (The General Hospital Corporation, priority 2018, published 2021):
# Key:
# [1] = system: pro-inflammatory cytokines and chemokines in spinal cord; test: Meso Scale Discovery multi-spot cytokine assay, spinal cord; type: in vivo, mice; settings: TgSOD1-Cromolyn vs TgSOD1-Vehicle; p=0.0273
# Experimental: Spinal cord frozen tissue was homogenized in ice-cold RIPA buffer (Thermo Fisher Scientific, #8990) supplemented with protease inhibitor cocktail (Thermo Fisher Scientific, #78430). Samples were centrifuged at 45,000 g for 30 minutes at 4° C. using an Optima TL ultracentrifuge and a TLA 120.2 rotor (Beckman Coulter). Expression levels of 10 pro-inflammatory cytokines and chemokines were assessed in the supernatants derived from spinal cord tissue or in the plasma, using an electrochemiluminescence-based multi-array method and MESO Quickplex SQ 120 system (MSD, Rockville, Md., USA). The 96-well V-PLEX Proinflammatory Mouse 1 Kit (Meso Scale Discovery, #K15048D) was used to measure simultaneously IFN-γ, IL-1β, IL-2, IL-4, IL-5, IL-6, CXCL1/KC/GRO, IL-10, IL-12, p70, and TNFα, following the manufacturer's instructions. Briefly, samples were diluted in the calibrator and added to the plate coated with an array of cytokine capture antibodies. […] The plate was washed with the wash buffer and the 2× Read Buffer T was added. The signal was immediately measured on a MESO QuickPlex SQ 120 instrument and was analyzed using the DISCOVERY WORKBENCH 4.0 software (Meso Scale Diagnostics, LLC., Rockville, Md., USA). Protein concentrations in the supernatants or the plasma samples were measured using the Pierce BCA protein assay kit (Thermo Scientific). […]
# GPR35 [2] = test: GPR35 western blots, spinal cord; type: in vivo, mice; settings: non-lumbar region of the spinal cord; TgSOD1-Cromolyn vs TgSOD1-Vehicle; p=0.167
# Experimental: Western blots were performed as previously described (Mueller et al., 2018). Briefly, […] of mouse spinal cord protein was re-suspended in sample buffer, boiled at 95° C. for 5 minutes, and fractioned on 10-20% Tricine gels (Life Technologies), and the membrane was then blocked with 5% milk in tris-buffered saline with Tween 20 (TBST) before immunodetection with antibodies specific for the following: GPR35 (Novus Biologicals, Littleton, Colo.; NBP2-24640), and beta-actin (Cell Signaling Technology, Danvers, Mass.; 4967S). Primary antibody incubation overnight was followed by 4 washes (15 min, RT) in TBST before incubation with the secondary antibody for 1 h (HRP-conjugated goat anti-rabbit IgG Jackson ImmunoResearch Laboratories, West Grove, Pa.; and HRP-conjugated goat anti-mouse Bio-Rad Laboratories Hercules, Calif.). After 4 washes in TBST (15 min, RT) proteins were visualized using the ECL detection system (NEN, Boston, Mass.). GPR35 integrated density values (IDV) were normalized to beta-actin.
# (§1) 149 male and female age- and litter-matched transgenic (Tg) SOD1^G93A and wild-type (Wt) SOD1^G93A mice were used with the following breakdown: Females (19 WtSOD1-Vehicle, 17 WtSOD1-Cromolyn, 19 TgSOD1-Vehicle, and 17 TgSOD1-Cromolyn) and Males (18 WtSOD1-Vehicle, 21 WtSOD1-Cromolyn, 21 TgSOD1-Vehicle, 17 TgSOD1-Cromolyn).
# beta-amyloid peptides = beta-amyloid peptides (Homo sapiens, UniProt P05067); settings: cited from earlier work
# Chain of beta-amyloid peptides (P05067 672-713 limits assumed): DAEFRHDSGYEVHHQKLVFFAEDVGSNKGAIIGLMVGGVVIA
# GPR35 [3] = test: GPR35 immunofluorescence, lumbar spinal cord; type: in vivo, mice; settings: TgSOD1-Cromolyn vs TgSOD1-Vehicle
# Experimental: Frozen mouse lumbar spinal cord was sectioned at […] and stained using previously described methods. Tissue sections were fixed with 4% paraformaldehyde and blocked in a mixture of phosphate-buffered saline (PBS), 5% BSA, and normal goat serum. Co-staining was done using antibodies specific for GPR35 (Novus Biologicals, Littleton, Colo.; NBP2-24640) and NeuN (Millipore Sigma, Temecula, Calif.; MAB377 overnight at 4° C. Following three washes with PBS, sections were incubated with Cy3-conjugated goat anti-mouse and FITC-conjugated goat anti-rabbit antibodies (Jackson ImmunoResearch, West Grove, Pa.). Ten 20× fields were imaged from each section and analyzed using open source software from the National Institutes of Health (ImageJ).
# as §1
# SOD1^G93A mouse model = test: Paw Grip Endurance Test (PaGE); type: in vivo, mice; settings: TgSOD1-Cromolyn vs TgSOD1-Vehicle
# Experimental: The PaGE test was performed as previously described. Briefly, mice were placed on the wire lid of a conventional housing cage that was inverted and held at ˜45 cm above an open cage bottom. […] The largest value from three individual trials was used for analysis.
# as §1
# SOD1 gene = settings: in vitro studies; cited from earlier work
# MCP-1 = test: CCL2/MCP-1 ELISA assay; type: in vivo, mice
# Experimental: Spinal cord tissue was homogenized, and supernatants were derived as described in the section related to the Meso Scale Discovery cytokine assay. MCP-1 levels were measured in the supernatants generated from spinal cord tissue or in the plasma using the 96-well Mouse CCL2/JE/MCP-1 Quantikine ELISA Kit (R&D systems, #MJE00B), following the manufacturer's instructions. Briefly, samples and diluted standards were added to the plate coated with MCP-1-specific antibody. Samples were incubated in the plate for 2 hours on a shaker at room temperature, followed by washes with the wash buffer provided in the kit. Subsequently, horseradish peroxidase conjugated antibody against MCP-1 was added to each well and incubated for 2 hours at room temperature on the shaker. The plate was washed with the wash buffer and incubated with Substrate solution for 30 minutes at room temperature. Next, Stop solution was added and the signal was read on a Microplate reader (Synergy 2, Biotek Instruments). The optical density was measured at […] and was corrected with the optical density measured at 540 nm. MCP-1 levels in the samples were calculated based on the MCP-1 standard curve. Protein concentrations in the supernatants were measured by the Pierce BCA protein assay kit (Thermo Scientific). Values in the graphs represent levels of MCP-1 normalized to the corresponding protein concentrations. […]
structure (smiles),measurement,setting,value
"O=C(O)c1cc(=O)c2c(OCC(O)COc3cccc4oc(C(=O)O)cc(=O)c34)cccc2o1 [cromolyn, cromolyn sodium]",CXCL1 levels in spinal cord,[1],significant decrease
same,TNFα levels in spinal cord,[1],significant decrease
same,"GPR35 levels (western blot, normalized to beta-actin)",GPR35 [2],trend towards an increase
same,binding to beta-amyloid peptides and polymerization,beta-amyloid peptides,inhibiting their polymerization to higher order aggregates
same,neuronal GPR35 levels (co-localized with NeuN),GPR35 [3]; p=0.0411,significant increase in neuronal GPR35 levels
same,GPR35 levels (immunofluorescence intensity),GPR35 [3]; p=0.0449,significant increase in GPR35 levels
same,PaGE performance,"SOD1^G93A mouse model; 6.3 mg/kg i.p., all mice, P120 and P140",significant improvement in PaGE performance
same,PaGE performance,"SOD1^G93A mouse model; female mice, P100",greater deficits in PaGE performance
same,PaGE performance,"SOD1^G93A mouse model; female mice, P140",significant improvement
same,PaGE performance,"SOD1^G93A mouse model; male mice, P120",significant improvement in PaGE
same,effect on SOD1 gene,SOD1 gene,inhibits the SOD1 gene
same,MCP-1 levels in the spinal cord,MCP-1; TgSOD1-Cromolyn vs TgSOD1-Vehicle,no effect of cromolyn treatment on MCP-1 levels
same,MCP-1 levels in the plasma,MCP-1; any of the groups,not altered
